One test has as its system Nurr1 and TH promoters. The test can be described thus: DIP-qPCR and ChIP-qPCR on Nurr1 and TH promoters. The test is classed as cell-based, rat. The conditions noted are these: Quercetin 10 μM, 3 hours prior to VC treatment. From the text: (§1) Foxa2 and Nurr1 binding sites were identified using the Jaspar database (http://jaspar.genereg.net/) using an 80% score threshold. Predicted Foxa2 and Nurr1 binding sites were coupled with phylogenetic footprinting to eliminate spurious predictions with specified position weight matrix (PWM) settings, as described in the following reference. [Sandelin, A., and Wasserman, W. W. (2004). Constrained binding site diversity within families of transcription factors enhances pattern discovery bioinformatics. Journal of molecular biology 338, 207-215] (Table 2). ChIP and DIP assays were carried out as described in the following reference. [Prolonged membrane depolarization enhances midbrain dopamine neuron differentiation via epigenetic histone modifications. Stem Cells 29, 1861-1873]. Briefly, chromatin or genomic DNA was sheared to an average of 200-500 bp in length using a sonication Bioruptor (BMS, Seoul, Korea) and immunoprecipitated using the antibodies listed in Table 1. Immunoprecipitated DNA fragments were collected using magnetic beads (Invitrogen), purified, and subjected to real-time PCR using the primers listed in Table 3. The comparative cycle threshold method was used to quantify the results. Data were normalized to the input DNA.

Test [1] deals with Foxa2 and Lmx1a promoters. The test can be described thus: DIP-qPCR and ChIP-qPCR on Foxa2 and Lmx1a promoters. The test is classed as cell-based, rat. The conditions noted are these: Quercetin 10 μM, 3 hours prior to VC treatment.
Excerpt: as §1
A general note: Real-time PCR tracks product formation cycle by cycle.

Consider `O=c1c(O)c(-c2ccc(O)c(O)c2)oc2cc(O)cc(O)c12` [quercetin], for which, in the test on Nurr1 and TH promoters, the “effect on VC-induced epigenetic changes on Nurr1 and Th promoter” value is “abolished”. In addition, in test [1], the “effect on VC-mediated changes to 5mC/5hmC and H3K27m3/H3K9m3 on Foxa2 and Lmx1a genes” value is on record as “abolished”.

The values are drawn from patent US20190183939A1, “CELL THERAPY USING MIDBRAIN-TYPE NEURAL STEM CELLS TREATED WITH VITAMIN C” (INDUSTRY-UNIVERSITY COOPERATION FOUNDATION HANYANG …, priority 2017, published 2019).
